For 30 compounds, inhibition results are on record in patent US7851474B2, “Dipiperazinyl ketones and related analogues” (Neurogen Corporation, priority 2005, dated 2010).

This experiment has as its target T1, chimeric human H3 receptor (Homo sapiens, UniProt Q9Y5N1, E19D).
T1 construct: made in house; host or cells: Sf9 insect cells (baculovirus infection); P2 membrane preparation
Kind of experiment: Chimeric human H3 receptor screening GTP binding assay (inhibition of histamine-stimulated GTP-gamma35S binding, Example 8). In kind it is biochemical. Particulars: 1 h, read-out: percent inhibition of agonist-induced GTP-gammaS binding to H3. As to the method:
This Example illustrates a representative screening assay for evaluating inhibition of histamine-stimulated GTP-gamma^35S binding. Such GTP binding activity can be used to identify H3 antagonists and inverse agonists. A compound analyzed in this assay is referred to herein as a “test compound,” and the initial identification of antagonists and inverse agonists is performed using a test compound concentration of 4 μM.
Four independent baculoviral stocks (one directing the expression of the chimeric human H3 receptor and three directing the expression of each of the three subunits of a heterotrimeric G-protein) are used to infect a culture of Sf9 cells as described above. P2 membranes are prepared as described above, and are resuspended by Dounce homogenization (tight pestle) in GTP binding assay buffer (50 mM Tris pH 7.4, 120 mM NaCl, 5 mM MgCl2, 2 mM EGTA, 1 mg/ml BSA, 0.2 mg/ml bacitracin, 0.02 mg/ml aprotinin, 0.01 mg/ml saponin, 10 μM GDP) and added to assay tubes at a concentration of 35 μg protein/reaction tube. Non-radiolabeled test compounds are added to separate reactions at a concentration of 4 μM along with 1 μM histamine (agonist). Reactions are initiated by the addition of 125 pM GTP-gamma^35S with a final assay volume of 0.20 ml.
After a 60-min incubation at room temperature, reactions are terminated by vacuum filtration over GF/C filters (pre-soaked in 50 mM Tris pH 7.4, 120 mM NaCl plus 0.1% BSA) followed by washing with ice-cold buffer (50 mM Tris pH 7.4, 120 mM NaCl). The amount of receptor-bound (and thereby membrane-bound) GTP-gamma^35S is determined by measuring the bound radioactivity, preferably by liquid scintillation spectrometry of the washed filters. Non-specific binding is determined using 10 uM GTP-gammaS and typically represents less than 5 percent of total binding. After subtraction of non-specific binding, data is expressed as percent inhibition of 1 μM histamine signal.
Neutral antagonists are those test compounds that reduce the histamine-stimulated GTP binding activity towards, but not below, baseline levels. In contrast, in the absence of added histamine, inverse agonists reduce the GTP binding activity of the receptor-containing membranes below baseline. Any test compound that elevates GTP binding activity above baseline in the absence of added histamine in this assay is defined as having agonist activity.

Setting [1] is: "+" in Ki of Table II, assay of Example 8.
Where [2] appears, read: assay of Example 8, "+" in Ki of Table II.
Where [3] appears, read: Table II, "+" in the column headed Ki, assay of Example 8.
[4] abbreviates: assay described in Example 8, symbol + in column headed Ki of Table II.
Setting [5] is: Table II "Ki", symbol "+": assay described in Example 8.

Where two headings read alike, the source gives them in different places.

T1 sequence (Q9Y5N1 with tags, fused parts or gaps E19D): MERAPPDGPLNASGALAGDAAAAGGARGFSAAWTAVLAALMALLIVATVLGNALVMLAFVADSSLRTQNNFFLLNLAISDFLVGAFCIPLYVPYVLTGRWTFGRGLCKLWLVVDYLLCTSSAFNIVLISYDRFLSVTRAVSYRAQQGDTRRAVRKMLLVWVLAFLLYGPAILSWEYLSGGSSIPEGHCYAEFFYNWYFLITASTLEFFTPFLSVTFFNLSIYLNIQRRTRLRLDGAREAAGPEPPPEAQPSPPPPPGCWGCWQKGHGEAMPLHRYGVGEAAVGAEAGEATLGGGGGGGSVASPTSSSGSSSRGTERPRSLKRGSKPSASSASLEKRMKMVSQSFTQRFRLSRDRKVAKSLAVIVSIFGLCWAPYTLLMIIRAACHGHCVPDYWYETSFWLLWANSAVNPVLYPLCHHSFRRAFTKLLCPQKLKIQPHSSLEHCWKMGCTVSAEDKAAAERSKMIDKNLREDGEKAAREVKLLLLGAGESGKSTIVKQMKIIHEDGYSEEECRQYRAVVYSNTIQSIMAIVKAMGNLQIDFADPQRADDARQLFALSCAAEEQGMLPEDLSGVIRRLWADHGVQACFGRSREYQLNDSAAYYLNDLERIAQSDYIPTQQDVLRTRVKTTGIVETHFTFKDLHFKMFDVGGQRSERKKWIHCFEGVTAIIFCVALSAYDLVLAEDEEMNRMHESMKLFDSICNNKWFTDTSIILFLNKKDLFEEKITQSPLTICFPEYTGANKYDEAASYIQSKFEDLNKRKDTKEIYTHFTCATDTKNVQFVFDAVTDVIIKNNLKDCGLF

`Cc1ccc(C(=O)N2CCN(CC(=O)N3CCN(C4CCC4)CC3)CC2)s1` [Compound 570, 1-cyclobutyl-4-({4-[(5-methyl-2-thienyl)carbonyl]piperazin-1-yl}acetyl)piperazine]: under setting [1], the inhibition (commonly the share of the control response that was lost under treatment) at 4 µM was over 90%.

As to `CSc1ncc(Cl)c(C(=O)N2CCN(CC(=O)N3CCN(C4CCC4)CC3)CC2)n1` [Compound 1164, 5-chloro-4-({4-[2-(4-cyclobutylpiperazin-1-yl)-2-oxoethyl]piperazin-1-yl}carbonyl)-2-(methylthio)pyrimidine], the inhibition at 4 µM under setting [2] was over 90%.

Take `O=C(CN1CCN(C(=O)c2ccc(OCC(F)(F)F)nc2)CC1)N1CCN(C2CCC2)CC1` [Compound 636, 1-cyclobutyl-4-[(4-{[6-(2,2,2-trifluoroethoxy)pyridin-3-yl]carbonyl}piperazin-1-yl)acetyl]piperazine]: under setting [3], the inhibition at 4 µM was over 90%.

For the compound `O=C(/C=C/c1cccc(Cl)c1)N1CCN(CC(=O)N2CCN(C3CCC3)CC2)CC1` [Compound 390, 1-[(2E)-3-(3-chlorophenyl)prop-2-enoyl]-4-[2-(4-cyclobutylpiperazin-1-yl)-2-oxoethyl]piperazine], under setting [4], the inhibition at 4 µM was over 90%.

Take `O=C(Cc1ccccc1OCc1ccccc1)N1CCN(CC(=O)N2CCN(C3CCC3)CC2)CC1` [Compound 476, 1-{[2-(benzyloxy)phenyl]acetyl}-4-[2-(4-cyclobutylpiperazin-1-yl)-2-oxoethyl]piperazine]: under setting [1], the inhibition at 4 µM is over 90%.

Take `CNc1ccccc1C(=O)N1CCN(CC(=O)N2CCN(C3CCC3)CC2)CC1` [Compound 891, 2-({4-[2-(4-cyclobutylpiperazin-1-yl)-2-oxoethyl]piperazin-1-yl}carbonyl)-N-methylaniline]: the inhibition at 4 µM under setting [5] is over 90%.

Turning to `Cc1ccc(CC(=O)N2CCN(CC(=O)N3CCN(C4CCC4)CC3)CC2)cc1` [Compound 566, 1-cyclobutyl-4-({4-[(4-methylphenyl)acetyl]piperazin-1-yl}acetyl)piperazine], the inhibition at 4 µM under setting [1] was over 90%.

Turning to `COc1ccc(OC)c(Sc2ncccc2C(=O)N2CCN(CC(=O)N3CCN(C4CCC4)CC3)CC2)c1` [Compound 659, 1-cyclobutyl-4-{[4-({2-[(2,5-dimethoxyphenyl)thio]pyridin-3-yl}carbonyl)piperazin-1-yl]acetyl}piperazine], the inhibition at 4 µM under setting [3] is over 90%.

As for `Cc1cc(Cl)ccc1OCC(=O)N1CCN(CC(=O)N2CCN(C3CCC3)CC2)CC1` [Compound 405, 1-[(4-chloro-2-methylphenoxy)acetyl]-4-[2-(4-cyclobutylpiperazin-1-yl)-2-oxoethyl]piperazine], under setting [4], the inhibition at 4 µM is over 90%.

Regarding `CC(C)(C)c1ccc(OCC(=O)N2CCN(CC(=O)N3CCN(C4CCC4)CC3)CC2)cc1` [Compound 408, 1-[(4-tert-butylphenoxy)acetyl]-4-[2-(4-cyclobutylpiperazin-1-yl)-2-oxoethyl]piperazine], the inhibition at 4 µM under setting [4] was over 90%.

On to `O=C(COc1ccc(OC(F)(F)F)cc1)N1CCN(CC(=O)N2CCN(C3CCC3)CC2)CC1` [Compound 629, 1-cyclobutyl-4-[(4-{[4-(trifluoromethoxy)phenoxy]acetyl}piperazin-1-yl)acetyl]piperazine], for which the inhibition at 4 µM under setting [3] is over 90%.

`O=C(Cc1ccccc1OC(F)(F)F)N1CCN(CC(=O)N2CCN(C3CCC3)CC2)CC1` [Compound 621, 1-cyclobutyl-4-[(4-{[2-(trifluoromethoxy)phenyl]acetyl}piperazin-1-yl)acetyl]piperazine]: under setting [3], the inhibition at 4 µM was over 90%.

For `CCc1ccc(C(=O)N2CCN(CC(=O)N3CCN(C4CCC4)CC3)CC2)s1` [Compound 568, 1-cyclobutyl-4-({4-[(5-ethyl-2-thienyl)carbonyl]piperazin-1-yl}acetyl)piperazine], the inhibition at 4 µM under setting [1] is over 90%.

For `O=C(CN1CCN(C(=O)c2cc(Cl)ccc2Cl)CC1)N1CCN(C2CCC2)CC1` [Compound 681, 1-cyclobutyl-4-{[4-(2,5-dichlorobenzoyl)piperazin-1-yl]acetyl}piperazine], the inhibition at 4 µM under setting [3] is over 90%.

In the case of `O=C(CN1CCN(C(=O)c2cncc(C#Cc3ccccc3)c2)CC1)N1CCN(C2CCC2)CC1` [Compound 634, 1-cyclobutyl-4-[(4-{[5-(phenylethynyl)pyridin-3-yl]carbonyl}piperazin-1-yl)acetyl]piperazine], the inhibition at 4 µM under setting [3] is over 90%.

For `CCCOc1ccccc1C(=O)N1CCN(CC(=O)N2CCN(C3CCC3)CC2)CC1` [Compound 722, 1-cyclobutyl-4-{[4-(2-propoxybenzoyl)piperazin-1-yl]acetyl}piperazine], under setting [3], the inhibition at 4 µM is over 90%.

With `CC(CC(=O)N1CCN(CC(=O)N2CCN(C3CCC3)CC2)CC1)Sc1ccc(Cl)cc1` (stereo not drawn) [Compound 482, 1-{3-[(4-chlorophenyl)thio]butanoyl}-4-[2-(4-cyclobutylpiperazin-1-yl)-2-oxoethyl]piperazine], under setting [1], the inhibition at 4 µM is over 90%.

On to `CCCc1ccc(C(=O)N2CCN(CC(=O)N3CCN(C4CCC4)CC3)CC2)cc1` [Compound 790, 1-cyclobutyl-4-{[4-(4-propylbenzoyl)piperazin-1-yl]acetyl}piperazine], for which the inhibition at 4 µM under setting [5] was over 90%.

Turning to `COc1ccc(C(=O)N2CCN(CC(=O)N3CCN(C4CCC4)CC3)CC2)cc1OC` [Compound 731, 1-cyclobutyl-4-{[4-(3,4-dimethoxybenzoyl)piperazin-1-yl]acetyl}piperazine], the inhibition at 4 µM under setting [3] was over 90%.

As for `CCOc1ccccc1/C=C/C(=O)N1CCN(CC(=O)N2CCN(C3CCC3)CC2)CC1` [Compound 523, 1-cyclobutyl-4-({4-[(2E)-3-(2-ethoxyphenyl)prop-2-enoyl]piperazin-1-yl}acetyl)piperazine], under setting [1], the inhibition at 4 µM is over 90%.

As for `COc1ccc(OCC(=O)N2CCN(CC(=O)N3CCN(C4CCC4)CC3)CC2)cc1` [Compound 562, 1-cyclobutyl-4-({4-[(4-methoxyphenoxy)acetyl]piperazin-1-yl}acetyl)piperazine], under setting [1], the inhibition at 4 µM is over 90%.

In the case of `Cc1ccc(C(=O)N2CCN(CC(=O)N3CCN(C4CCC4)CC3)CC2)c(C)c1` [Compound 679, 1-cyclobutyl-4-{[4-(2,4-dimethylbenzoyl)piperazin-1-yl]acetyl}piperazine], the inhibition at 4 µM under setting [3] was over 90%.

As to `Nc1ccc(Cl)cc1C(=O)N1CCN(CC(=O)N2CCN(C3CCC3)CC2)CC1` [Compound 1151, 4-chloro-2-({4-[2-(4-cyclobutylpiperazin-1-yl)-2-oxoethyl]piperazin-1-yl}carbonyl)aniline], the inhibition at 4 µM under setting [2] is over 90%.

On to `O=C(CN1CCN(C(=O)c2cccc(Cl)c2Cl)CC1)N1CCN(C2CCC2)CC1` [Compound 664, 1-cyclobutyl-4-{[4-(2,3-dichlorobenzoyl)piperazin-1-yl]acetyl}piperazine], for which, under setting [3], the inhibition at 4 µM is over 90%.

As to `Cc1ccccc1C(=O)N1CCN(CC(=O)N2CCN(C3CCC3)CC2)CC1` [Compound 714, 1-cyclobutyl-4-{[4-(2-methylbenzoyl)piperazin-1-yl]acetyl}piperazine], under setting [3], the inhibition at 4 µM was over 90%.

Take `O=C(Cc1ccc2c(c1)OCO2)N1CCN(CC(=O)N2CCN(C3CCC3)CC2)CC1` [Compound 259, 1-(1,3-benzodioxol-5-ylacetyl)-4-[2-(4-cyclobutylpiperazin-1-yl)-2-oxoethyl]piperazine]: under setting [4], the inhibition at 4 µM was over 90%.

For the compound `COc1cc(CC(=O)N2CCN(CC(=O)N3CCN(C4CCC4)CC3)CC2)cc(OC)c1OC` [Compound 544, 1-cyclobutyl-4-({4-[(3,4,5-trimethoxyphenyl)acetyl]piperazin-1-yl}acetyl)piperazine], the inhibition at 4 µM under setting [1] is over 90%.

For the compound `CCC(C(=O)N1CCN(CC(=O)N2CCN(C3CCC3)CC2)CC1)c1ccccc1` (stereo not drawn) [Compound 721, 1-cyclobutyl-4-{[4-(2-phenylbutanoyl)piperazin-1-yl]acetyl}piperazine], the inhibition at 4 µM under setting [3] was over 90%.

Turning to `O=C(CN1CCN(C(=O)c2cncc(Br)c2)CC1)N1CCN(C2CCC2)CC1` [Compound 411, 1-[(5-bromopyridin-3-yl)carbonyl]-4-[2-(4-cyclobutylpiperazin-1-yl)-2-oxoethyl]piperazine], the inhibition at 4 µM under setting [4] was over 90%.

Regarding `O=C(Cc1ccc(Br)cc1)N1CCN(CC(=O)N2CCN(C3CCC3)CC2)CC1` [Compound 403, 1-[(4-bromophenyl)acetyl]-4-[2-(4-cyclobutylpiperazin-1-yl)-2-oxoethyl]piperazine], under setting [4], the inhibition at 4 µM is over 90%.
